In US11278547B2 (Strongbridge Dublin Limited, priority 2019, dated 2022):

Assays:
MATE1 = target: T1, MATE1 (Homo sapiens, UniProt Q96FL8)
T1 sequence (Q96FL8 1-570): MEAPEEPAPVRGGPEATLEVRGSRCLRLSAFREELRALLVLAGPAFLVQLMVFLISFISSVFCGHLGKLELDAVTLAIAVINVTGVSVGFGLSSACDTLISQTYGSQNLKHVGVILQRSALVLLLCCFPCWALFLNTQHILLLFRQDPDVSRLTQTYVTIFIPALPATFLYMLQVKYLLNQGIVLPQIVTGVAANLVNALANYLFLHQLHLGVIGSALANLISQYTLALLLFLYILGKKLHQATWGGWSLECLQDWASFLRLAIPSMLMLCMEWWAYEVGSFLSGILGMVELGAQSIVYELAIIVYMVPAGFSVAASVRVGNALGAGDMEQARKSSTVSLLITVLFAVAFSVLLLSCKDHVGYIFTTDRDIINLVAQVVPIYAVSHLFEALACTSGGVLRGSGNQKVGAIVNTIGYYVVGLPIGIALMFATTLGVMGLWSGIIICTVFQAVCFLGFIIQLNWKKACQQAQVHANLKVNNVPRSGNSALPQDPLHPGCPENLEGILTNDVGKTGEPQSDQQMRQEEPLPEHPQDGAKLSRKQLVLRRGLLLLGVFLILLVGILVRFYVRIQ

OCT2 = target: T2, OCT2 (Homo sapiens, UniProt O15244)
T2 sequence (O15244 1-555): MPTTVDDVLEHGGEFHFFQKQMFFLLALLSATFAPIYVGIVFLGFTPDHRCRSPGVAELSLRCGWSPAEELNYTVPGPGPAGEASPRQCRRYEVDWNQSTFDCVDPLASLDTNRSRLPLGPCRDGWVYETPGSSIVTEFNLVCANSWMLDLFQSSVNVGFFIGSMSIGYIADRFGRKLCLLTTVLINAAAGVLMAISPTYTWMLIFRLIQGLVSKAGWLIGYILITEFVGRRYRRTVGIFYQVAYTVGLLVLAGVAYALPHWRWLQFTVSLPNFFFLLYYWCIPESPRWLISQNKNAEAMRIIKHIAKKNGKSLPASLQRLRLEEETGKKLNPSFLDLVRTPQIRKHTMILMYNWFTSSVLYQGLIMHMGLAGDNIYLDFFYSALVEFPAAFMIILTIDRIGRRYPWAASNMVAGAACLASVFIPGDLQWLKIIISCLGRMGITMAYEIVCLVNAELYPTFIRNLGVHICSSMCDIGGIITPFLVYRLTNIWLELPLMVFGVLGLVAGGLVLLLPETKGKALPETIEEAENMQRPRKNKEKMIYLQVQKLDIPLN

[1] = Cushing's syndrome patients, reportedly; cited from earlier work

SMILES	IC50 (MATE1)	IC50 (OCT2)	patients in whom hypercortisolism is normalized [1]
CC(=O)N1CCN(c2ccc(OCC3COC(Cn4ccnc4)(c4ccc(Cl)cc4Cl)O3)cc2)CC1 (racemic) [Ketoconazole, ketoconazole]	0.279 µM	1.52 µM	30-70%
CC(=O)N1CCN(c2ccc(OC[C@@H]3CO[C@@](Cn4ccnc4)(c4ccc(Cl)cc4Cl)O3)cc2)CC1 (relative stereo) [Levoketoconazole, 2S,4R cis-1-acetyl-4-[4-[[2-(2,4-dichlorophenyl)-2-(1H-imidazol-1-ylmethyl)-1,3-dioxolan-4-yl]methoxyl]phenyl]piperazine]	0.248 µM	0.218 µM	
